{"source": "paper doi:10.1101/2025.04.16.649181", "about": "“Design of peptide-based PAC1 antagonists combining molecular dynamics simulations and a biologically relevant cell-based assay” (bioRxiv, 2025)", "key": {"[1]": {"molecular_target": "T1, PAC1 (endogenous, mainly PAC1null, SH-SY5Y) (Homo sapiens, UniProt P41586)", "T1 construct": "Neuroblastoma SH-SY5Y cells endogenously xpressing hPAC1 and engineered to express CBS; endogenous in cells", "T1 sequence (P41586 21-468)": "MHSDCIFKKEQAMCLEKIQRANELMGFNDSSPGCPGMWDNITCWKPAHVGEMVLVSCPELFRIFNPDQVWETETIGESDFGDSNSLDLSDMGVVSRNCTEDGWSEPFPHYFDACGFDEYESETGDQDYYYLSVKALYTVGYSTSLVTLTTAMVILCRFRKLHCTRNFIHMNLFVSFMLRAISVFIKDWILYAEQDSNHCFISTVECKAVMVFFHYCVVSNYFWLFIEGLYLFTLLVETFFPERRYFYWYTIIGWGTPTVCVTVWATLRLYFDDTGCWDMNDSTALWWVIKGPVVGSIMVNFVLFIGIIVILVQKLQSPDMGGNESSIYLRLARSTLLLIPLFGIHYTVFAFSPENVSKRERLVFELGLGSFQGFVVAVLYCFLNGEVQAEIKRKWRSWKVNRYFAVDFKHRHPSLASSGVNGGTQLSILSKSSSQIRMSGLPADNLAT", "experiment": "CBS assay, antagonism of P27-induced cAMP in SY5Y_CBS cells", "format": "cell-based", "settings": "for antagonist potency vs P6-27: 0.2 nM P27 (EC80); for IC50: IC50 against P27, 0.2 nM P27 (EC80), n = 3, Figure 7C", "excerpt": "(§1) A single clone of the SH-SY5Y cell line stably expressing a cAMP biosensor (SY5Y_CBS) was generated as previously described for HEK293_CBS and NS-1_CBS cells, using the retroviral vector pLHCX containing the cAMP biosensor and a hygromycin resistance gene. A HEK293_CBS_hPAC1 cell clone was generated by transducing HEK293_CBS cells with the lentiviral vector pLX304 (GeneCopoeia, Rockville, MD) encoding the human PAC1hop (PAC1; GenBank accession no. BC143679) and a blasticidin resistance gene . Following transduction, cells were selected with the appropriate antibiotics (hygromycin or blasticidin) for 2 weeks. Single-cell clones were subsequently isolated by limiting dilution and assessed for PACAP-induced cAMP production using concentration-response assays.\n(§2) The cyclic AMP biosensor (CBS) assay was performed using Gibco CO2-independent medium (ThermoFisher, catalog #18045-088). HEK293_CBS_hPAC1 or SY5Y_CBS cells were seeded in 96-well black/clear-bottom plates (MidSci, Fenton, MO) at a density of 6,000 cells per well and incubated overnight. The following day, the medium in each well was aspirated and replaced with fresh medium containing 1.5 mg/mL D-luciferin potassium salt substrate (Gold Biotechnology, St. Louis, MO) and 500 μM isobutyl-1-methylxanthine (IBMX), followed by incubation at 37 °C for 1 hour. Cells were then pre-treated with antagonists for 10 minutes before the addition of agonists (PACAP or forskolin). Plates were incubated at 37 °C for 1 hour, then brought to room temperature and equilibrated for 30 minutes. Luminescence was measured using a GloMax plate reader (Promega, Madison, WI).\nFor the high-throughput CBS screening assays, cells were plated at 2,000 (HEK293_CBS_hPAC1) or 3,000 (SY5Y_CBS) cells per well in […] of Gibco CO2-independent medium, in white 1,536-well tissue culture treated plates. After overnight incubation at 37 °C and 5% CO2, […] of luciferin/IBMX solution was added to the wells (final concentrations of 500 μM each) and plates were incubated at 37 °C for 1 hour. SMOLs (22.5 nL) were transferred to the assay plate, using a pintool device (HEK293 screen) or an ECHO acoustic liquid handler (Beckman Coulter, Brea, CA, SY5Y screen), to final concentrations (4 concentrations per compound) between 0.5 and 30 μM and cells were incubated at 37 °C for 1 hour (HEK293 screen) or 10 minutes (SY5Y screen). […] For forskolin counterscreening in SY5Y cells, forskolin instead of peptide was dispensed to the plate at a final concentration of 5 μM.\n(§3) GraphPad Prism ver. 9.0 or 10.0 (GraphPad Software Inc, Boston, MA) was used for data analysis. Concentration response curves were created using a four parameter logistic regression model. EC80 and IC50 parameters were obtained using non-linear regression curve fitting tools. EC80 was calculated as the effective concentration of the agonist required to produce 80% of the maximal response. IC50 was calculated as the concentration of the antagonist that produced 50% of the response induced by an agonist (either PACAP or forskolin) in the absence of the antagonist. Seven or eight different concentrations and three technical replicates per concentration were used for curve fitting. All data are presented as mean ± standard error of the mean (SEM)."}, "[2]": {"molecular_target": "T1, PAC1 (endogenous, mainly PAC1null, SH-SY5Y)", "experiment": "CBS assay, antagonism of P38-induced cAMP in SY5Y_CBS cells", "format": "cell-based", "settings": "for IC50: three independent experiments; for P38-induced cAMP elevation blocked to: 0.2 nM P38, SY5Y_CBS, n = 3", "excerpt": "as §1, §2, §3"}, "[3]": {"settings": "IC50 against P38 (Figure 9C), 0.2 nM P38, CBS assay, mean ± SEM"}, "[4]": {"settings": "0.2 nM P38 (EC80), SY5Y_CBS, mean ± SEM, Figure 11B, read-out: IC50 of P6-38 C-terminal mutants in CBS assay"}}, "note": "Positions of bridges follow the written chain, without caps; N, C: chain ends. Non-standard residues stand in square brackets, D forms with d. Residues, ends and D or L forms follow the SMILES beside them. No end group written: not given here. Cha = N[C@@H](CC1CCCCC1)C(=O)O"}
{"molecule": "CSCC[C@@H]1NC(=O)[C@@H](NC(=O)[C@H](CCCCN)NC(=O)[C@H](CCCNC(=N)N)NC(=O)[C@H](Cc2ccc(O)cc2)NC(=O)[C@H](CCCNC(=N)N)NC(=O)[C@H](CO)NC(=O)[C@H](Cc2ccc(O)cc2)NC(=O)[C@H](CO)NC(=O)[C@H](CC(=O)O)NC(=O)[C@@H](NC(=O)[C@@H](N)Cc2ccccc2)[C@@H](C)O)CCC(=O)NCCCC[C@@H](C(=O)N[C@@H](CCCCN)C(=O)N[C@@H](Cc2ccc(O)cc2)C(=O)N[C@@H](CC(C)C)C(=O)N[C@@H](C)C(=O)N[C@@H](C)C(=O)N[C@H](C(=O)N[C@@H](CC(C)C)C(N)=O)C(C)C)NC(=O)[C@H](C(C)C)NC(=O)[C@H](C)NC1=O", "note": "[P6-27Lb, (c[E16,K20])P6-27] (H-FTDSYSRYRKEMAVKKYLAAVL-NH2; lactam 11-15; N-terminus assumed)", "values": [{"measurement": "antagonist potency vs P6-27", "setting": "[1]", "value": "did not increase the inhibitory effect of P6-27"}, {"measurement": "IC50", "setting": "[1]", "value": "> 1000", "unit": "nM"}]}
{"molecule": "CSCC[C@@H]1NC(=O)[C@@H](NC(=O)[C@H](CCCCN)NC(=O)[C@H](CCCNC(=N)N)NC(=O)[C@H](Cc2ccc(O)cc2)NC(=O)[C@H](CCCNC(=N)N)NC(=O)[C@H](CO)NC(=O)[C@H](Cc2ccc(O)cc2)NC(=O)[C@H](CO)NC(=O)[C@H](CC(=O)O)NC(=O)[C@@H](NC(=O)[C@@H](N)Cc2ccccc2)[C@@H](C)O)CCC(=O)NCCCC[C@@H](C(=O)N[C@@H](CCCCN)C(=O)N[C@@H](Cc2ccc(O)cc2)C(=O)N[C@@H](CC2CCCCC2)C(=O)N[C@@H](C)C(=O)N[C@@H](C)C(=O)N[C@H](C(=O)N[C@@H](CC(C)C)C(N)=O)C(C)C)NC(=O)[C@H](C(C)C)NC(=O)[C@H](C)NC1=O", "note": "[P6-27Lbx1, (c[E16,K20], Cha23)P6-27] (H-FTDSYSRYRKEMAVKKY[Cha]AAVL-NH2; lactam 11-15; N-terminus assumed)", "values": [{"measurement": "antagonist potency vs P6-27", "setting": "[1]", "value": "did not increase the inhibitory effect of P6-27"}, {"measurement": "IC50", "setting": "[1]", "value": "> 1000", "unit": "nM"}]}
{"molecule": "CSCC[C@@H]1NC(=O)[C@@H](NC(=O)[C@H](CCCCN)NC(=O)[C@H](CCCNC(=N)N)NC(=O)[C@H](Cc2ccc(O)cc2)NC(=O)[C@H](CCCNC(=N)N)NC(=O)[C@H](CO)NC(=O)[C@H](Cc2ccc(O)cc2)NC(=O)[C@H](CO)NC(=O)[C@H](CC(=O)O)NC(=O)[C@@H](NC(=O)[C@@H](N)Cc2ccccc2)[C@@H](C)O)CCC(=O)NCCCC[C@@H](C(=O)N[C@@H](CCCCN)C(=O)N[C@@H](Cc2ccc(O)cc2)C(=O)N[C@@H](CC(C)C)C(=O)N[C@@H](C)C(=O)N[C@@H](C)C(=O)N[C@H](C(=O)N[C@@H](CC2CCCCC2)C(N)=O)C(C)C)NC(=O)[C@H](C(C)C)NC(=O)[C@H](C)NC1=O", "note": "[P6-27Lbx2, (c[E16,K20], Cha27)P6-27] (H-FTDSYSRYRKEMAVKKYLAAV[Cha]-NH2; lactam 11-15; N-terminus assumed)", "values": [{"measurement": "antagonist potency vs P6-27", "setting": "[1]", "value": "did not increase the inhibitory effect of P6-27"}, {"measurement": "IC50", "setting": "[1]", "value": "> 1000", "unit": "nM"}]}
{"molecule": "CSCC[C@H](NC(=O)[C@H](CCC(N)=O)NC(=O)[C@H](CCCCN)NC(=O)[C@H](CCCNC(=N)N)NC(=O)[C@H](Cc1ccc(O)cc1)NC(=O)[C@H](CCCNC(=N)N)NC(=O)[C@H](CO)NC(=O)[C@H](Cc1ccc(O)cc1)NC(=O)[C@H](CO)NC(=O)[C@H](CC(=O)O)NC(=O)[C@@H](NC(=O)[C@@H](N)Cc1ccccc1)[C@@H](C)O)C(=O)N[C@@H](C)C(=O)N[C@H](C(=O)N[C@@H](CCCCN)C(=O)N[C@@H](CCCCN)C(=O)N[C@@H](Cc1ccc(O)cc1)C(=O)N[C@@H](CC(C)C)C(=O)N[C@@H](C)C(=O)N[C@H]1CCC(=O)NCCCC[C@@H](C(=O)N[C@@H](CCCNC(=N)N)C(=O)N[C@@H](Cc2ccc(O)cc2)C(=O)N[C@@H](CCCCN)C(=O)N[C@@H](CCC(N)=O)C(=O)N[C@@H](CCCNC(=N)N)C(=O)N[C@H](C(=O)N[C@@H](CCCCN)C(=O)N[C@@H](CC(N)=O)C(=O)N[C@@H](CCCCN)C(N)=O)C(C)C)NC(=O)CNC(=O)[C@H](CC(C)C)NC(=O)[C@H](C(C)C)NC1=O)C(C)C", "note": "[P6-38Lb, (c[E25,K29])P6-38] (H-FTDSYSRYRKQMAVKKYLAEVLGKRYKQRVKNK-NH2; lactam 20-24)", "values": [{"measurement": "IC50", "setting": "[2]; [3]", "value": "219 ± 28", "unit": "nM"}]}
{"molecule": "CSCC[C@H](NC(=O)[C@H](CCC(N)=O)NC(=O)[C@H](CCCCN)NC(=O)[C@H](CCCNC(=N)N)NC(=O)[C@H](Cc1ccc(O)cc1)NC(=O)[C@H](CCCNC(=N)N)NC(=O)[C@H](CO)NC(=O)[C@H](Cc1ccc(O)cc1)NC(=O)[C@H](CO)NC(=O)[C@H](CC(=O)O)NC(=O)[C@@H](NC(=O)[C@@H](N)Cc1ccccc1)[C@@H](C)O)C(=O)N[C@@H](C)C(=O)N[C@H](C(=O)N[C@@H](CCCCN)C(=O)N[C@@H](CCCCN)C(=O)N[C@@H](Cc1ccc(O)cc1)C(=O)N[C@@H](CC1CCCCC1)C(=O)N[C@@H](C)C(=O)N[C@H]1CCC(=O)NCCCC[C@@H](C(=O)N[C@@H](CCCNC(=N)N)C(=O)N[C@@H](Cc2ccc(O)cc2)C(=O)N[C@@H](CCCCN)C(=O)N[C@@H](CCC(N)=O)C(=O)N[C@@H](CCCNC(=N)N)C(=O)N[C@H](C(=O)N[C@@H](CCCCN)C(=O)N[C@@H](CC(N)=O)C(=O)N[C@@H](CCCCN)C(N)=O)C(C)C)NC(=O)CNC(=O)[C@H](CC(C)C)NC(=O)[C@H](C(C)C)NC1=O)C(C)C", "note": "[P6-38Lbx1, (c[E25,K29], Cha23)P6-38] (H-FTDSYSRYRKQMAVKKY[Cha]AEVLGKRYKQRVKNK-NH2; lactam 20-24)", "values": [{"measurement": "IC50", "setting": "[2]; [3]", "value": "61 ± 12", "unit": "nM"}]}
{"molecule": "FTDSYSRYRKQMAVKKYLAAVL-NH2 [P6-27]", "values": [{"measurement": "P38-induced cAMP elevation blocked to", "setting": "[2]; P6-27 at 1 μM", "value": 50, "unit": "%"}, {"measurement": "P38-induced cAMP elevation blocked to", "setting": "[2]; until the highest concentration tested (10 μM)", "value": "~ 50%"}]}
{"molecule": "FTDSYSRYRKQMAVKKYLAAVLG-NH2 [P6-28]", "values": [{"measurement": "IC50", "setting": "[2]; 0.2 nM P38 (EC80), SY5Y_CBS, Figure 11B, read-out: IC50 of P6-38 C-terminal mutants in CBS assay", "value": "> 1000", "unit": "nM"}]}
{"molecule": "FTDSYSRYRKQMAVKKYLAAVLGKRYK-NH2 [P6-32]", "values": [{"measurement": "IC50", "setting": "[2]; [4]", "value": "72 ± 17", "unit": "nM"}]}
{"molecule": "FTDSYSRYRKQMAVKKYLAAVLGKRYKQRVK-NH2 [P6-36]", "values": [{"measurement": "IC50", "setting": "[2]; [4]", "value": "90 ± 13", "unit": "nM"}]}
